From patent US20090029391A1, “REAGENTS AND METHODS FOR THE DETERMINATION OF PK/ADME-TOX CHARACTERISTICS OF NEW CHEMICAL ENTITIES AND OF DRUG CANDIDATES” (priority 2007, published 2009)
One block for each compound: values may come before it.

What was measured:
bovine serum albumin = bovine serum albumin (Bos taurus, UniProt P02769); conditions: known drugs of Example 5, described as poor, medium or high binders; cited from earlier work
[1] = pKa by colloidal gold pH titration (ratio O.D. 620 nm/525 nm); conditions: colloidal gold pH titration of 1 mM drugs, 1% DMSO, (2) number the two pKa of doxycycline; for pKa: buffered gold colloid (gold nanoparticle solution), pKa observed
Experimental: (§1) A series of 50 mM buffers of pH 2-12 was then prepared (phosphate [pH 2, 3, 6, 7, 8], acetate [pH 4 and 5] and borate [pH 9, 10, 11, 12]), which were further diluted 5-fold with the gold colloid solution. The final pH of the 10 mM buffered colloid so obtained was then recorded. Drug solutions (10 μl, 100 mM in DMSO) were then pipeted in 1 mL of the buffered colloid and the mixture was vortex-mixed. After 30 minutes of incubation, the solutions were pipeted in 96-well polystyrene plates and the O.D. at 620 nm and 525 nm were recorded. The ratio O.D. 620 nm/O.D. 525 nm was calculated. This ratio relates to the agglutination of the colloid (i.e., the higher the ratio, the higher the agglutination). Typically, the ionization of a molecule creates charge(s) that may facilitate the agglutination of the colloid. Thus, titering a molecule with buffered gold colloids over a range of pHs can allow one to determine the ionization constant from the interpolated mid-point of the sigmoid curve drawn from agglutinated to unagglutinated colloid as a function of pH.

[2] = Williams and Lemke 2002; (1), (2) number the two pKa of doxycycline; cited from earlier work
physchem = conditions: pKa observed
Experimental: as §1

serum albumin = conditions: literature (Goodman and Gillman 1996); cited from earlier work
[3] = Redox potential with PANI-COOH conductive polymer (O.D. 450 nm); format: physicochemical; conditions: 100 μM drug, PANI-COOH at pH 4, 10 minutes room temperature; inferred from 450 nm signal
Experimental: The redox potential of known drugs were assayed. The known drug at a given final concentration (100 μM) was introduced in a buffered solution of a conductive polymer (poly[aniline-2-carboxylic acid], PANI-COOH) at pH 4. The solution was mixed and incubated at room temperature (10 minutes). The optical density was read at 450 nm. A sample blank containing the drug and phtalate buffer was prepared, incubated and read in the same way. The OD 450 nm of the blank solution was subtracted from the OD 450 nm of the conductive polymer reaction mixture. […] A linear relationship was observed between the 450 nm signal and the reduction potential of the known molecules (FIG. 15.), which allowed the inference of the reduction potential of NCEs.
Screening a library of 60 well-known drugs allowed identification of bromocriptine as a relatively strong […] (E=−364 mV), prazosin and chlorpropamide as relatively strong […] (E=747 and 848 mV), which is in agreement with literature data (Wardman P. (1989) Reduction potentials of one-electron couples involving free radicals in aqueous solution. J. Phys. Chem. Ref. Data 18, 1637-1755). Although a reductant drug may exert beneficial therapeutic effects, an oxidant may be toxic. […]

human serum albumin = human serum albumin (Homo sapiens, UniProt P02768); conditions: literature (Westphal 1986); cited from earlier work
Chain of human serum albumin (P02768 25-609): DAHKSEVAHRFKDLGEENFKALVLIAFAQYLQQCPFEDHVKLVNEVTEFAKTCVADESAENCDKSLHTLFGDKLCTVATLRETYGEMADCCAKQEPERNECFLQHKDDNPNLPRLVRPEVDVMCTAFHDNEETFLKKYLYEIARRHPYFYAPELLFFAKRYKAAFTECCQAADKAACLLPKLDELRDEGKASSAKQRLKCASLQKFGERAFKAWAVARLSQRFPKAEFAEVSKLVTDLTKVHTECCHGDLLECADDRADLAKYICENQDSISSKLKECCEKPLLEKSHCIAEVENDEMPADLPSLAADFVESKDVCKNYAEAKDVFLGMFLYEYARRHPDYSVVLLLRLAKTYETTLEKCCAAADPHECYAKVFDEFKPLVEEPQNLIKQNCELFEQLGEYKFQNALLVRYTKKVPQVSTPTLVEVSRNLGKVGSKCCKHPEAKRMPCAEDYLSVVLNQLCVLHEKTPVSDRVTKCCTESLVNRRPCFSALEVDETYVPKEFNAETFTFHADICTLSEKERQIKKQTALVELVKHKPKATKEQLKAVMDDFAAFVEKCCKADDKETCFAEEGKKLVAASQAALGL

[4] = Volume of distribution in humans; conditions: human
[5] = literature (Goodman and Gillman 1996); cited from earlier work

Chain of bovine serum albumin (P02769 25-607): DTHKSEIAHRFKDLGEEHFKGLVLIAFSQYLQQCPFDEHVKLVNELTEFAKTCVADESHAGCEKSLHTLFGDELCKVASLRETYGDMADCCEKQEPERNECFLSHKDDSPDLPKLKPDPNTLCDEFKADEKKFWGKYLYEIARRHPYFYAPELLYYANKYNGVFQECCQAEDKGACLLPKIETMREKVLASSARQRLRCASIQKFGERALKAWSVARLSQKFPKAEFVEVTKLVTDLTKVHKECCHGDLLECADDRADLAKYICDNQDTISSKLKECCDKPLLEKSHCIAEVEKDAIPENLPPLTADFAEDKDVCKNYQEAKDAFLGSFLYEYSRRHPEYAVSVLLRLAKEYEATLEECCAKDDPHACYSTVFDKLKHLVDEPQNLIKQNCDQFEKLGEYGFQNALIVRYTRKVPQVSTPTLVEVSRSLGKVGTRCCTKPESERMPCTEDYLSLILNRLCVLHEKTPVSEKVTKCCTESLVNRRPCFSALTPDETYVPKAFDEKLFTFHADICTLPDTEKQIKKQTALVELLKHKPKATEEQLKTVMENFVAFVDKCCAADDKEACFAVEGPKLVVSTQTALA

SMILES: CC(=O)Oc1ccccc1C(=O)O [Aspirin, Acetylsalicylic acid]
binder class to the protein (bovine serum albumin) (bovine serum albumin): poor binders

SMILES: CN(C)CCC(c1ccc(Cl)cc1)c1ccccn1 (stereo not shown) [Chlorpheniramine]
binder class to the protein (bovine serum albumin) (bovine serum albumin): medium binders

SMILES: Nc1ccc(S(=O)(=O)c2ccc(N)cc2)cc1 [Dapsone]
pKa [1]: 3.9
pKa from reference [2]: 2.4

pKa [1]: 6.9
SMILES: CC[C@H]1OC(=O)[C@H](C)[C@@H](O[C@H]2C[C@@](C)(OC)[C@@H](O)[C@H](C)O2)[C@H](C)[C@@H](O[C@@H]2O[C@H](C)C[C@H](N(C)C)[C@H]2O)[C@](C)(O)C[C@@H](C)C(=O)[C@H](C)[C@@H](O)[C@]1(C)O [Erythromycine, Erythromycin]
binder class to the protein (bovine serum albumin) (bovine serum albumin): medium binders

pKa (physchem): 3
SMILES: CCOc1ccc2ccccc2c1C(=O)N[C@@H]1C(=O)N2[C@@H]1SC(C)(C)[C@@H]2C(=O)O [Nafcillin]

SMILES: CC(=O)Nc1ccc(O)cc1 [Paracetamol]
pKa observed [1]: 9.5
pKa from reference [2]: 9.4

pKa [1]: 7.4
SMILES: C=C[C@H]1C[N@@]2CC[C@H]1C[C@@H]2[C@@H](O)c1ccnc2ccc(OC)cc12 [Quinidine]

SMILES: C=CC1=C(C)/C(=C/c2[nH]c(Cc3[nH]c(/C=C4\NC(=O)C(C)=C4C=C)c(C)c3CCC(=O)O)c(CCC(=O)O)c2C)NC1=O [bilirubin]
bound by serum albumin / by the protein in plasma (serum albumin): ~100%

reduction potential E [3]: 848 mV
SMILES: CCCNC(=O)NS(=O)(=O)c1ccc(Cl)cc1 [chlorpropamide]

SMILES: C[C@H]1O[C@@H](O[C@H]2[C@@H](O)C[C@H](O[C@H]3[C@@H](O)C[C@H](O[C@H]4CC[C@@]5(C)[C@H](CC[C@@H]6[C@@H]5C[C@@H](O)[C@]5(C)[C@@H](C7=CC(=O)OC7)CC[C@]65O)C4)O[C@@H]3C)O[C@@H]2C)C[C@H](O)[C@@H]1O [digoxin, Digoxin]
apparent affinity for human serum albumin determined by dialysis (human serum albumin): 1.85.10^5 liters per mole

reduction potential E [3]: 747 mV
SMILES: COc1cc2nc(N3CCN(C(=O)c4ccco4)CC3)nc(N)c2cc1OC [prazosin]

SMILES: Cn1c(=O)c2[nH]cnc2n(C)c1=O [theophylline]
Vd [4]: 0.551 L/kg
volume of distribution observed experimentally [5]: 0.50±0.16 liters per Kg
